Laboratory results published in patent publication US10844044B2 (Vanderbilt University, priority 2018, dated 2020).
Read-outs that look alike come from different tables or passages of the source.

Key:
[1] = system: MV4:11 human cancer cell lines; assay: Anti-proliferative activity, CellTiter-Glo viability assay, 7 day protocol; assay type: cell-based; details: MV4:11 cells, 7 day incubation, read-out: GI50 on cellular proliferation of MV4:11 human cancer cell lines
Summary of the method: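 MV4:11 cells seeded at 3600 cells/ml and exposed to compounds for 7 days, 0.1% DMSO final. Viability measured by CellTiter-Glo luminescence. GI50 from three biological replicates, each in technical triplicate, given as mean ± S.E.M.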

WDR5 = WDR5 (Homo sapiens (Human), UniProt P61964); assay: TR-FRET binding assay (displacement of 10mer-Thr-FAM probe from WDR5)
[2] = read-out: Ki for Inhibition of WDR5 by TR-FRET assay, TR-FRET, 10mer-Thr-FAM probe, WDR5-His tag 2 nM, pH 7.0
[3] = read-out: Ki for Inhibition of WDR5 by TR-FRET assay

| Ki (WDR5) | Compound | GI50 ([1]; Homo sapiens, MV4-11, 168 h) | Ki (WDR5; [2]) | Ki (WDR5; [3]) | GI50 [1] |
| --- | --- | --- | --- | --- | --- |
|  | Cc1cc([C@@H](NC(=O)c2cc(Cn3ccn(C4CC4)c3=N)cc(-c3cccnc3C(F)(F)F)c2)C2CC2)ccc1F [Example 115, (S)—N-(Cyclopropyl(4-fluoro-3-methylphenyl)methyl)-3-((3-cyclopropyl-2-imino-2,3-dihydro-1H-imidazol-1-yl)methyl)-5-(2-(trifluoromethyl)pyridin-3-yl)benzamide] | < 100 nM | < 0.1 nM |  |  |
|  | CCn1ccn(Cc2cc(C(=O)NCc3cc(OC)cc(OC)c3)cc(-c3ccc(F)cc3C)c2)c1=N [Example 116, N-(3,5-Dimethoxybenzyl)-5-((3-ethyl-2-imino-2,3-dihydro-1H-imidazol-1-yl)methyl)-4′-fluoro-2′-methyl-[1,1′-biphenyl]-3-carboxamide] | 570 nM | 0.4 nM |  |  |
|  | COc1cc(CNC(=O)c2cc(Cn3ccn(C4CC4)c3=N)cc(-c3ccc(F)cc3C)c2)cc(OC)c1 [Example 117, 5-((3-Cyclopropyl-2-imino-2,3-dihydro-1H-imidazol-1-yl)methyl)-N-(3,5-dimethoxybenzyl)-4′-fluoro-2′-methyl-[1,1′-biphenyl]-3-carboxamide] | 310 nM | 0.15 nM |  |  |
|  | COc1cc(OC)cc(C(NC(=O)c2cc(Cn3ccn(C)c3=N)cc(-c3ccnn3C(C)C)c2)C2CC2)c1 (stereo not shown) [Example 118, N-(Cyclopropyl(3,5-dimethoxyphenyl)methyl)-3-((2-imino-3-methyl-2,3-dihydro-1H-imidazol-1-yl)methyl)-5-(1-isopropyl-1H-pyrazol-5-yl)benzamide] | 6300 nM | 0.83 nM |  |  |
|  | Cc1cc([C@@H](NC(=O)c2cc(Cn3ccn(C)c3=N)cc(-c3cccnc3C(F)(F)F)n2)C2CC2)ccc1F [Example 119, (S)—N-(Cyclopropyl(4-fluoro-3-methylphenyl)methyl)-4-((2-imino-3-methyl-2,3-dihydro-1H-imidazol-1-yl)methyl)-2′-(trifluoromethyl)-[2,3′-bipyridine]-6-carboxamide] | 7600 nM | 0.16 nM |  |  |
|  | Cc1ccnc([C@@H](NC(=O)c2cc(Cn3ccn(C)c3=N)cc(-c3ccc(F)cc3C(F)(F)F)c2F)C2CC2)c1 [Example 120, (S)—N-(Cyclopropyl(4-methylpyridin-2-yl)methyl)-2,4′-difluoro-5-((2-imino-3-methyl-2,3-dihydro-1H-imidazol-1-yl)methyl)-2′-(trifluoromethyl)-[1,1′-biphenyl]-3-carboxamide] | 220 nM | < 0.1 nM |  |  |
|  | CC(=O)/N=c1\n(C)ccn1Cc1cc(C(=O)NCc2ccc(Cl)c(Cl)c2)cc(-c2ccc(F)nc2C)c1 [Example 121, (E)-3-((2-(acetylimino)-3-methyl-2,3-dihydro-1H-imidazol-1-yl)methyl)-N-(3,4-dichlorobenzyl)-5-(6-fluoro-2-methylpyridin-3-yl)benzamide] | 5900 nM |  | > 33 nM |  |
|  | CCOC(=O)/N=c1\n(C)ccn1Cc1cc(C(=O)NCc2ccc(Cl)c(Cl)c2)cc(-c2ccc(F)nc2C)c1 [Example 122, Ethyl (1-(3-((3,4-dichlorobenzyl)carbamoyl)-5-(6-fluoro-2-methylpyridin-3-yl)benzyl)-3-methyl-1,3-dihydro-2H-imidazol-2-ylidene)carbamate] | 4200 nM |  | > 33 nM |  |
| < 0.1 nM | Cc1cc([C@@H](NC(=O)c2cc(Cn3ccn(C)c3=N)cc(-c3cn(C)nc3C(F)(F)F)c2)C2CC2)ccc1F [Example 125, (S)—N-(Cyclopropyl(4-fluoro-3-methylphenyl)methyl)-3-((2-imino-3-methyl-2,3-dihydro-1H-imidazol-1-yl)methyl)-5-(1-methyl-3-(trifluoromethyl)-1H-pyrazol-4-yl)benzamide] | 180 nM |  |  |  |
|  | Cc1cc([C@@H](NC(=O)c2cc(Cn3ccn(C)c3=N)cc(-c3cccnc3OC(F)F)c2)C2CC2)ccc1F [Example 127, (S)—N-(Cyclopropyl(4-fluoro-3-methylphenyl)methyl)-3-(2-(difluoromethoxy)pyridin-3-yl)-5-((2-imino-3-methyl-2,3-dihydro-1H-imidazol-1-yl)methyl)benzamide] | 730 nM | 0.21 nM |  |  |
|  | Cc1cc([C@@H](NC(=O)c2cc(Cn3ccn(C)c3=N)cc(-c3cccnc3C(F)(F)F)c2F)C2CC2)ccc1F [Example 131, (S)—N-(Cyclopropyl(4-fluoro-3-methylphenyl)methyl)-2-fluoro-5-((2-imino-3-methyl-2,3-dihydro-1H-imidazol-1-yl)methyl)-3-(2-(trifluoromethyl)pyridin-3-yl)benzamide] | 140 nM | < 0.1 nM |  |  |
|  | Cc1ccnc([C@@H](NC(=O)c2cc(Cn3ccn(C)c3=N)cc(-c3cccnc3C(F)(F)F)c2F)C2CC2)c1 [Example 132, (S)—N-(Cyclopropyl(4-methylpyridin-2-yl)methyl)-2-fluoro-5-((2-imino-3-methyl-2,3-dihydro-1H-imidazol-1-yl)methyl)-3-(2-(trifluoromethyl)pyridin-3-yl)benzamide] | 610 nM | 0.13 nM |  |  |
|  | Cc1cc([C@@H](NC(=O)c2cc(Cn3ccn(C)c3=N)cc(C3CC3)c2)C2CC2)ccc1F [Example 139, (S)-3-Cyclopropyl-N-(cyclopropyl(4-fluoro-3-methylphenyl)methyl)-5-((2-imino-3-methyl-2,3-dihydro-1H-imidazol-1-yl)methyl)benzamide] | 730 nM |  | 0.18 nM |  |
|  | Cc1cc([C@@H](NC(=O)c2cc(Cn3ccn(C4CC4)c3=N)cc(-c3ccc(F)cc3Cl)c2)C2CC2)ccc1F [Example 141, (S)-2′-Chloro-N-(cyclopropyl(4-fluoro-3-methylphenyl)methyl)-5-((3-cyclopropyl-2-imino-2,3-dihydro-1H-imidazol-1-yl)methyl)-4′-fluoro-[1,1′-biphenyl]-3-carboxamide] | < 100 nM | < 0.1 nM |  |  |
|  | Cc1cc([C@@H](NC(=O)c2cc(Cn3ccn(C4CC4)c3=N)cc(-c3cn(C)nc3C(F)(F)F)c2)C2CC2)ccc1F [Example 142, (S)—N-(Cyclopropyl(4-fluoro-3-methylphenyl)methyl)-3-((3-cyclopropyl-2-imino-2,3-dihydro-1H-imidazol-1-yl)methyl)-5-(1-methyl-3-(trifluoromethyl)-1H-pyrazol-4-yl)benzamide] | < 100 nM | < 0.1 nM |  |  |
|  | Cc1cc([C@@H](NC(=O)c2cc(CN3CCN(C)C3=N)cc(-c3cccnc3C(F)(F)F)c2)C2CC2)ccc1F [Example 143, (S)—N-(Cyclopropyl(4-fluoro-3-methylphenyl)methyl)-3-((2-imino-3-methylimidazolidin-1-yl)methyl)-5-(2-(trifluoromethyl)pyridin-3-yl)benzamide] | 170 nM |  | < 0.1 nM |  |
|  | Cc1cc(CNC(=O)c2cc(Cn3ccn(C)c3=N)cc(OC(F)(F)F)c2)ccc1Cl [Example 147, N-(4-Chloro-3-methylbenzyl)-3-((2-imino-3-methyl-2,3-dihydro-1H-imidazol-1-yl)methyl)-5-(trifluoromethoxy)benzamide] | 840 nM | 0.37 nM |  |  |
|  | Cc1cc([C@@H](NC(=O)c2cc(Cn3ccn(C)c3=N)cc(-c3ccc(F)cc3C(F)F)c2)C2CC2)ccc1F [Example 154, (S)—N-(Cyclopropyl(4-fluoro-3-methylphenyl)methyl)-2′-(difluoromethyl)-4′-fluoro-5-((2-imino-3-methyl-2,3-dihydro-1H-imidazol-1-yl)methyl)-[1,1′-biphenyl]-3-carboxamide] | 120 nM | < 0.1 nM |  |  |
|  | Cc1cc([C@@H](NC(=O)c2cc(Cn3ccn(C4CC4)c3=N)cc(-c3ccc(F)cc3OC(F)F)c2)C2CC2)ccc1F [Example 156, (S)—N-(cyclopropyl(4-fluoro-3-methylphenyl)methyl)-5-((3-cyclopropyl-2-imino-2,3-dihydro-1H-imidazol-1-yl)methyl)-2′-(difluoromethoxy)-4′-fluoro-[1,1′-biphenyl]-3-carboxamide] | 470 nM | < 0.1 nM |  |  |
|  | Cn1cc(-c2cc(Cn3ccn(C)c3=N)cc(C(=O)N[C@H](c3ccc(Cl)c(Cl)c3)C3CC3)c2)c(C(F)(F)F)n1 [Example 157, (S)—N-(Cyclopropyl(3,4-dichlorophenyl)methyl)-3-((2-imino-3-methyl-2,3-dihydro-1H-imidazol-1-yl)methyl)-5-(1-methyl-3-(trifluoromethyl)-1H-pyrazol-4-yl)benzamide] |  | < 0.1 nM |  | 100 nM |
|  | Cc1cc([C@@H](NC(=O)c2cc(Cn3ccn(C4CC4)c3=N)cc(-c3ccc(F)cc3C(F)F)c2)C2CC2)ccc1F [Example 158, (S)—N-(Cyclopropyl(4-fluoro-3-methylphenyl)methyl)-5-((3-cyclopropyl-2-imino-2,3-dihydro-1H-imidazol-1-yl)methyl)-2′-(difluoromethyl)-4′-fluoro-[1,1′-biphenyl]-3-carboxamide] | 170 nM | < 0.1 nM |  |  |
|  | Cn1cc(-c2cc(Cn3ccn(C4CC4)c3=N)cc(C(=O)N[C@H](c3ccc(Cl)c(Cl)c3)C3CC3)c2)c(C(F)(F)F)n1 [Example 159, (S)—N-(cyclopropyl(3,4-dichlorophenyl)methyl)-3-((3-cyclopropyl-2-imino-2,3-dihydro-1H-imidazol-1-yl)methyl)-5-(1-methyl-3-(trifluoromethyl)-1H-pyrazol-4-yl)benzamide] | 190 nM | < 0.1 nM |  |  |
|  | CCn1cc(-c2cc(Cn3ccn(C4CC4)c3=N)cc(C(=O)N[C@H](c3ccc(F)c(C)c3)C3CC3)c2)c(C(F)(F)F)n1 [Example 160, (S)—N-(Cyclopropyl(4-fluoro-3-methylphenyl)methyl)-3-((3-cyclopropyl-2-imino-2,3-dihydro-1H-imidazol-1-yl)methyl)-5-(1-ethyl-3-(trifluoromethyl)-1H-pyrazol-4-yl)benzamide] | < 100 nM | < 0.1 nM |  |  |
